Values of other authors, collected in US11013777B2, “Aronia extract for enhancing reaction time and attention” (BioActor BV, priority 2017, dated 2021).

absorption in the small intestine (in vivo)	glucuronidated share of the total anthocyanins in plasma and urine (in vivo)	share of the total metabolites found in plasma (humans, plasma)	Compound	appearance in plasma post-ingestion (in vivo)
poor absorption	approximately 55%	–	anthocyanins	Thirty minutes post-ingestion, anthocyanins can be measured in plasma
–	–	around 65%	OC[C@H]1O[C@@H](Oc2cc3c(O)cc(O)cc3[o+]c2-c2ccc(O)c(O)c2)[C@H](O)[C@@H](O)[C@H]1O [cyanidin-3-galactoside]	–
